Test results taken from ChEMBL document CHEMBL3526080, “In vitro inhibition of the bile salt export pump correlates with risk of cholestatic drug-induced liver injury in humans” (Drug Metab Dispos, 2012).

Tests used:
Bile salt export pump [1] = target: Bile salt export pump (Rattus norvegicus, UniProt O70127); assay: Inhibition of Sprague-Dawley rat Bsep expressed in plasma membrane vesicles of Sf21 cells assessed as inhibition of ATP-dependent [3H]taurocholate uptake; type: cell membranes
Bile salt export pump [2] = target: Bile salt export pump (Homo sapiens, UniProt O95342); assay: Inhibition of human BSEP expressed in plasma membrane vesicles of Sf21 cells assessed as inhibition of ATP-dependent [3H]taurocholate uptake; type: cell membranes
Bile salt export pump (Homo sapiens, UniProt O95342), sequence (O95342 whole entry): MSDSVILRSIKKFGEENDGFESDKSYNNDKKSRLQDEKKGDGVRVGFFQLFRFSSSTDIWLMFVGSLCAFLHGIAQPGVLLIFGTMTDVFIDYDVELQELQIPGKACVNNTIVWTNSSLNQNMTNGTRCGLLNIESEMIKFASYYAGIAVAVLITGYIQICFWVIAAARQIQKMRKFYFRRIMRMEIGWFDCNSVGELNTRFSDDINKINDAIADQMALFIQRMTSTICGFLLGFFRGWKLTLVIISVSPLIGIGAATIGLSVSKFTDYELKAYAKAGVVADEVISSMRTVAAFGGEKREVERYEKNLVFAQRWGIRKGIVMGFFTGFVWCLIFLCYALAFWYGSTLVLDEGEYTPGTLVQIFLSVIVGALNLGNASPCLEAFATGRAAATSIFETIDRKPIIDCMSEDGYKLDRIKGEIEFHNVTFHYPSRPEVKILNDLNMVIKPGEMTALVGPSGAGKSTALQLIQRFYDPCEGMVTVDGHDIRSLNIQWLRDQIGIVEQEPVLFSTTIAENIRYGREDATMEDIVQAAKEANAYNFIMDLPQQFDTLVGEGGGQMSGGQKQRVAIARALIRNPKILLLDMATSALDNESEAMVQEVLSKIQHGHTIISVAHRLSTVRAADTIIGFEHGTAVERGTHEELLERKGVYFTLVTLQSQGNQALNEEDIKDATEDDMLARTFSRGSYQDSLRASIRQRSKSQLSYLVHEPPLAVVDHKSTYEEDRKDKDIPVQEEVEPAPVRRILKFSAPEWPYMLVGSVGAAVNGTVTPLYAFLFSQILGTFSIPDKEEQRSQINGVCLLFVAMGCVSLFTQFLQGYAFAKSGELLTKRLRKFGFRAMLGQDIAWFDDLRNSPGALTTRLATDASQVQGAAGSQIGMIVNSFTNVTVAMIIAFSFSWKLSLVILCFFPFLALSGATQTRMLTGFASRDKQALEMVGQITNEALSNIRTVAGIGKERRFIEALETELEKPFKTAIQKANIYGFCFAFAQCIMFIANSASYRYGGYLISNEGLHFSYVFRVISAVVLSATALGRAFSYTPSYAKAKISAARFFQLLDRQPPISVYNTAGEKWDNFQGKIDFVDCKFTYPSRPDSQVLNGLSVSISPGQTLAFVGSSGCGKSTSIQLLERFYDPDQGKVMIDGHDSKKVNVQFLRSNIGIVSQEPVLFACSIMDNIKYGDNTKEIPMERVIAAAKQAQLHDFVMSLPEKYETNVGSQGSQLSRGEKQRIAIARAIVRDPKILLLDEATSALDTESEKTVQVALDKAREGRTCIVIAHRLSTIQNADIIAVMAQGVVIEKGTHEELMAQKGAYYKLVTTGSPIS

Bile salt export pump (Rattus norvegicus, UniProt O70127), sequence (O70127 whole entry): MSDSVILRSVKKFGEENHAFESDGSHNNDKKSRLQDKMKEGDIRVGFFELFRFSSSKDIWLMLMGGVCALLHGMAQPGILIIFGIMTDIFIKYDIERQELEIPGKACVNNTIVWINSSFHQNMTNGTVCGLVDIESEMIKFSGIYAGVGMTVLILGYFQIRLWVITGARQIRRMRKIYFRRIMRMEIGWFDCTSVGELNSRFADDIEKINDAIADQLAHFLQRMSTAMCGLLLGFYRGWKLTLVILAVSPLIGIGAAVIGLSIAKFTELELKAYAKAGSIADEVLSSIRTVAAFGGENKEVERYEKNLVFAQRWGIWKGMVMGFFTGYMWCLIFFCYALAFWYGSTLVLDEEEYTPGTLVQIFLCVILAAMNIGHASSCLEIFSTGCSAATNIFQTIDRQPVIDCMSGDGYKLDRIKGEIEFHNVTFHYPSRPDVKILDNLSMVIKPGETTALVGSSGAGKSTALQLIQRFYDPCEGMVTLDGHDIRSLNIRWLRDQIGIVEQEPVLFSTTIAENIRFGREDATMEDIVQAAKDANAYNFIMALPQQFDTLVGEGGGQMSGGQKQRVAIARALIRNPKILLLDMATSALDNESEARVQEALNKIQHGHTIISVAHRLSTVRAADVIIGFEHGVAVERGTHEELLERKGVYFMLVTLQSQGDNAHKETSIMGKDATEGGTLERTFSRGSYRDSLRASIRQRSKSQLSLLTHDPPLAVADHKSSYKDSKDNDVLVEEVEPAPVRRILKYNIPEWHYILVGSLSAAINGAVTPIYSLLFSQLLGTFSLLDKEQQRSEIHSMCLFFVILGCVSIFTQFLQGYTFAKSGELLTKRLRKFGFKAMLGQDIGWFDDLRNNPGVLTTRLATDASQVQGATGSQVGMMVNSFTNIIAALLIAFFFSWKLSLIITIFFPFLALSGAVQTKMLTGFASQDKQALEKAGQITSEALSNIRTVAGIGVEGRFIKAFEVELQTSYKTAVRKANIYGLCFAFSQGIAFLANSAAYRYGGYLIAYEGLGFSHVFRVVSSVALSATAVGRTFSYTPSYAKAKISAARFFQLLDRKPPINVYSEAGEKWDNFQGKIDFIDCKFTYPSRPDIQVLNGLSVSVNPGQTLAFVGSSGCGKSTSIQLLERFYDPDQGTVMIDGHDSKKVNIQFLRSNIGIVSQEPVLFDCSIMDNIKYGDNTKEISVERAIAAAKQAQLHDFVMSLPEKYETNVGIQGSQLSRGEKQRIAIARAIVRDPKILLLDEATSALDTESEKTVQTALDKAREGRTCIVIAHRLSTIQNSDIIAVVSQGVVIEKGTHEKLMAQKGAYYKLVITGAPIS

| Structure (SMILES) | IC50 (Bile salt export pump [1]) | IC50 (Bile salt export pump [2]) |
| --- | --- | --- |
| Nc1c2c(nc3ccccc13)CCCC2 [TACRINE] | > 1000 µM | > 1000 µM |
| CC(C)NNC(=O)c1ccncc1 [IPRONIAZID] | > 1000 µM | > 1000 µM |
| Cc1onc(-c2c(F)cccc2Cl)c1C(=O)N[C@@H]1C(=O)N2[C@@H]1SC(C)(C)[C@@H]2C(=O)O [FLOXACILLIN] | 429 µM | 209 µM |
| CC(C(=O)O)c1ccc2oc(-c3ccc(Cl)cc3)nc2c1 (stereo not given) [BENOXAPROFEN] | 99.1 µM | 175 µM |
| CN(Cc1cnc2nc(N)nc(N)c2n1)c1ccc(C(=O)N[C@@H](CCC(=O)O)C(=O)O)cc1 [METHOTREXATE] | > 1000 µM | > 1000 µM |
| CO[C@H]1/C=C/O[C@@]2(C)Oc3c(C)c(O)c4c(O)c(cc(O)c4c3C2=O)NC(=O)/C(C)=C\C=C\[C@H](C)[C@H](O)[C@@H](C)[C@@H](O)[C@@H](C)[C@H](OC(C)=O)[C@@H]1C [RIFAMYCIN] | 3.1 µM | 6.3 µM |
| O=C(O)Cc1csc(-c2ccc(Cl)cc2)n1 [FENCLOZIC ACID] | > 1000 µM | > 1000 µM |
| C[N+](C)(C)CC(=O)O [BETAINE] | > 1000 µM | > 1000 µM |
| CC(N/C(=N\C#N)Nc1ccncc1)C(C)(C)C (stereo not given) [PINACIDIL ANHYDROUS] | 222 µM | 348 µM |
| CC1(C)S[C@@H]2[C@H](NC(=O)[C@H](N)c3ccc(O)cc3)C(=O)N2[C@H]1C(=O)O [AMOXICILLIN] | > 1000 µM | > 1000 µM |
| Nc1ccc(S(=O)(=O)c2ccc(N)cc2)cc1 [DAPSONE] | > 1000 µM | – |
| Cc1ccc(S(=O)(=O)NC(=O)NN2CC3CCCC3C2)cc1 (stereo not given) [GLICLAZIDE] | > 1000 µM | > 1000 µM |
| CNC(=O)Oc1ccc2c(c1)[C@]1(C)CCN(C)[C@@H]1N2C [PHYSOSTIGMINE] | > 1000 µM | > 1000 µM |
| NS(=O)(=O)c1cc(C(=O)O)c(NCc2ccco2)cc1Cl [FUROSEMIDE] | > 1000 µM | – |
| CN1CCC(=C2c3ccccc3CC(=O)c3sccc32)CC1 [KETOTIFEN] | > 1000 µM | 738 µM |
| CO[C@H]1/C=C/O[C@@]2(C)Oc3c(C)c(O)c4c(O)c(c(/C=N/N5CCN(C)CC5)c(O)c4c3C2=O)NC(=O)/C(C)=C\C=C\[C@H](C)[C@H](O)[C@@H](C)[C@@H](O)[C@@H](C)[C@H](OC(C)=O)[C@@H]1C [RIFAMPIN] | 34.7 µM | 11.3 µM |
| CNC(=C[N+](=O)[O-])NCCSCc1ccc(CN(C)C)o1 [RANITIDINE] | > 1000 µM | – |
| O=C1CC2(CCCC2)CC(=O)N1CCCCN1CCN(c2ncccn2)CC1 [BUSPIRONE] | 370 µM | 105 µM |
| CCC(=O)O[C@H]1[C@H](O[C@@H]2[C@@H](C)[C@H](O[C@H]3C[C@@](C)(OC)[C@@H](O)[C@H](C)O3)[C@@H](C)C(=O)O[C@H](CC)[C@@](C)(O)[C@H](O)[C@@H](C)C(=O)[C@H](C)C[C@@]2(C)O)O[C@H](C)C[C@@H]1N(C)C [ERYTHROMYCIN ESTOLATE] | 11.4 µM | 4.1 µM |

| Structure (SMILES) | IC50 (Bile salt export pump [1]) | IC50 (Bile salt export pump [2]) |
| --- | --- | --- |
| NC(N)=Nc1nc(CSCCC(N)=NS(N)(=O)=O)cs1 [FAMOTIDINE] | > 1000 µM | > 1000 µM |
| Cc1oncc1C(=O)Nc1ccc(C(F)(F)F)cc1 [LEFLUNOMIDE] | 112 µM | 177 µM |
| Cc1ccc(C(=O)c2cc(O)c(O)c([N+](=O)[O-])c2)cc1 [TOLCAPONE] | 47.2 µM | 120 µM |
| CC(=O)O[C@H]1C[C@@]2(C)[C@@H](C[C@@H](O)[C@H]3[C@@]4(C)CC[C@@H](O)[C@@H](C)[C@@H]4CC[C@@]32C)/C1=C(\CCC=C(C)C)C(=O)O [FUSIDIC ACID] | 17.4 µM | 11.5 µM |
| O=C(C1CCCCC1)N1CC(=O)N2CCc3ccccc3C2C1 (stereo not given) [PRAZIQUANTEL] | 153 µM | 96.8 µM |
| CC(C)C(=O)Nc1ccc([N+](=O)[O-])c(C(F)(F)F)c1 [FLUTAMIDE] | 78.7 µM | 143 µM |
| CN(CCOc1ccc(CC2SC(=O)NC2=O)cc1)c1ccccn1 (stereo not given) [ROSIGLITAZONE] | 40 µM | 6.4 µM |
| CC(C)(S)[C@@H](N)C(=O)O [PENICILLAMINE] | > 1000 µM | > 1000 µM |
| C[C@](N)(Cc1ccc(O)c(O)c1)C(=O)O [METHYLDOPA] | > 1000 µM | > 1000 µM |
| O=c1[nH]c(=O)n([C@@H]2O[C@H](CO)[C@@H](O)[C@@H]2F)cc1I [FIALURIDINE] | > 1000 µM | > 1000 µM |
| CC(c1cc2ccccc2s1)N(O)C(N)=O (stereo not given) [ZILEUTON] | 564 µM | > 1000 µM |
| CN1CCN(C2=Nc3cc(Cl)ccc3Nc3ccccc32)CC1 [CLOZAPINE] | 197 µM | 126 µM |
| CCCN(CCC)C(=O)Cc1c(-c2ccc(Cl)cc2)nc2ccc(Cl)cn12 [ALPIDEM] | 23 µM | 9.2 µM |
| CCCCNC(=O)NS(=O)(=O)c1ccc(C)cc1 [TOLBUTAMIDE] | > 1000 µM | > 1000 µM |
| O=NN(CCCl)C(=O)NCCCl [CARMUSTINE] | > 1000 µM | > 1000 µM |
| CCc1nn(CCCN2CCN(c3cccc(Cl)c3)CC2)c(=O)n1CCOc1ccccc1 [NEFAZODONE] | 17.4 µM | 4.2 µM |
| O=C(O)[C@H]1/C(=C/CO)O[C@@H]2CC(=O)N21 [CLAVULANIC ACID] | > 1000 µM | > 1000 µM |
| COc1ccc(Cl)cc1C(=O)NCCc1ccc(S(=O)(=O)NC(=O)NC2CCCCC2)cc1 [GLYBURIDE] | 2.8 µM | – |
